Laboratory results from the supplement of paper PMC11962398.

Assays:
BI-2493 [1] = compound: T1, C[C@H]1CNCCN1c1nccc(-c2noc3c2CCC[C@@]32CCCc3sc(N)c(C#N)c32)n1 [BI-2493]; settings: 5 days
Procedure: (§1)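 PRISM pooled barcoded cancer cell line viability screen (Broad Institute) with BI-2493 at 8 doses in threefold dilutions from 0.00457 to 10 µmol/L, 5-day treatment; curves fitted per cell line. IC50 is undefined (placeholder) for resistant lines. AUC is capped at 1, and sensitivity is reported as 1 − AUC.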

BI-2493 [2] = compound: T1, BI-2493; assay: 1 - AUC of viability dose-response curve (sensitivity) (fraction); higher = more sensitive; settings: 5 days
Procedure: as §1

Row | Test System | IC50 of cell viability (BI-2493 [1]) | 1 - AUC of viability dose-response curve (BI-2493 [2])
1 | KE97_STOMACH | > 10 µM | 0.00627
2 | KELLY_AUTONOMIC_GANGLIA | 4.09 µM | 0.101
3 | KHM1B_HAEMATOPOIETIC_AND_LYMPHOID_TISSUE | 3.77 µM | 0.106
4 | KKU055_BILIARY_TRACT | 8.47 µM | 0.156
5 | KKU100_BILIARY_TRACT | 2.61 µM | 0.182
6 | KKU213_BILIARY_TRACT | 4.97 µM | 0.12
7 | KLE_ENDOMETRIUM | 4.68 µM | 0.0854
8 | KMCH1_BILIARY_TRACT | 9.41 µM | 0.013
9 | KMH2_HAEMATOPOIETIC_AND_LYMPHOID_TISSUE | 9.96 µM | 0.00616
10 | KMRC1_KIDNEY | 8.1 µM | 0.0333
11 | KMRC3_KIDNEY | 7 µM | 0.0597
12 | KMRC20_KIDNEY | 4.73 µM | 0.185
13 | KMS11_HAEMATOPOIETIC_AND_LYMPHOID_TISSUE | 3.13 µM | 0.272
14 | KMS12BM_HAEMATOPOIETIC_AND_LYMPHOID_TISSUE | 3.71 µM | 0.108
15 | KMS18_HAEMATOPOIETIC_AND_LYMPHOID_TISSUE | 5.38 µM | 0.13
16 | KMS21BM_HAEMATOPOIETIC_AND_LYMPHOID_TISSUE | 9.51 µM | 0.0119
17 | KMS27_HAEMATOPOIETIC_AND_LYMPHOID_TISSUE | 9 µM | 0.028
18 | KMS28BM_HAEMATOPOIETIC_AND_LYMPHOID_TISSUE | 9.91 µM | 0.00817
19 | KNS42_CENTRAL_NERVOUS_SYSTEM | 6.04 µM | 0.0979
20 | KNS60_CENTRAL_NERVOUS_SYSTEM | 9.53 µM | 0.0228
21 | KNS62_LUNG | 1.79 µM | 0.271
22 | KNS81_CENTRAL_NERVOUS_SYSTEM | 6.64 µM | 0.0832
23 | KON_UPPER_AERODIGESTIVE_TRACT | 3.51 µM | 0.189

Row | Test System | IC50 of cell viability (BI-2493 [1]) | 1 - AUC of viability dose-response curve (BI-2493 [2])
24 | KOSC2CL343_UPPER_AERODIGESTIVE_TRACT | 5.69 µM | 0.0719
25 | KP3_PANCREAS | 6.52 µM | 0.133
26 | KP4_PANCREAS | 4.92 µM | 0.189
27 | KPNYN_AUTONOMIC_GANGLIA | > 10 µM | 0.144
28 | KS1_CENTRAL_NERVOUS_SYSTEM | 7.63 µM | 0.0533
29 | KU1919_URINARY_TRACT | 9.28 µM | 0.0267
30 | KURAMOCHI_OVARY | > 10 µM | 0.129
31 | KYM1_SOFT_TISSUE | 3.79 µM | 0.117
32 | KYO1_HAEMATOPOIETIC_AND_LYMPHOID_TISSUE | 9.93 µM | 0.00435
33 | KYSE70_OESOPHAGUS | 5.15 µM | 0.163
34 | KYSE140_OESOPHAGUS | > 10 µM | 0.0648
35 | KYSE150_OESOPHAGUS | 3.68 µM | 0.131
36 | KYSE180_OESOPHAGUS | 7.63 µM | 0.0499
37 | KYSE270_OESOPHAGUS | 5.56 µM | 0.113
38 | KYSE410_OESOPHAGUS | 3.85 µM | 0.15
39 | KYSE510_OESOPHAGUS | 5.11 µM | 0.22
40 | KYSE520_OESOPHAGUS | 4.02 µM | 0.136
41 | L363_HAEMATOPOIETIC_AND_LYMPHOID_TISSUE | 7.78 µM | 0.041
42 | LAMA84_HAEMATOPOIETIC_AND_LYMPHOID_TISSUE | 0.76 µM | 0.34
43 | LC1SQSF_LUNG | > 10 µM | 0.255
44 | LCLC103H_LUNG | 8.64 µM | 0.0229
45 | LI7_LIVER | 1.52 µM | 0.213
46 | LMSU_STOMACH | 5.54 µM | 0.103
